For 11 compounds, hsF results are on record in patent EP4696688A1, “BENZO-FUSED RING COMPOUND INHIBITOR, AND PREPARATION METHOD THEREFOR AND USE THEREOF” (Shanghai Hansoh Biomedical Co., Ltd., priority 2023, dated 2024).

Some results are limits rather than exact numbers.

The target of this experiment is T1, human CYP11B1 (Homo sapiens, UniProt P15538).
T1 construct: The main elements of an expression plasmid include ORF of human CYP11B1 or human CYP11B2; expressed in transfected cells
T1 sequence (P15538 25-503): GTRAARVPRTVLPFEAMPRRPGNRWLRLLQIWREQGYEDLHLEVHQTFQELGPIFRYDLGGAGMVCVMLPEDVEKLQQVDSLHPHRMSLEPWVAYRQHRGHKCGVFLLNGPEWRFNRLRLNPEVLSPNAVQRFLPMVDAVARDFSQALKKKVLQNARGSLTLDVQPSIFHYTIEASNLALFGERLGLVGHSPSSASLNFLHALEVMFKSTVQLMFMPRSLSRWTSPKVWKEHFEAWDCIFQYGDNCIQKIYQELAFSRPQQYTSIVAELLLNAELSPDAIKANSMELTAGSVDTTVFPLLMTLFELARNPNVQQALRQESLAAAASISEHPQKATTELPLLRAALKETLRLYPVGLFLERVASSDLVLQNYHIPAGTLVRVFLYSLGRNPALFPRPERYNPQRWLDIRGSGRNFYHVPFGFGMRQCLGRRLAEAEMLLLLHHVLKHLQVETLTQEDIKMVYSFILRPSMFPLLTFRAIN
Briefly: G-402 cell enzyme experiment, CYP11B1 (cortisol product, HTRF), selectivity versus CYP11B2. The class given is cell-based. The note with it: human selective factor: ratio of CYP11B1 EC50 to CYP11B2 EC50; G-402 cells. An excerpt:
G-402 cell line was used as host cells to express (by transient or stable transfection) an enzyme of the human CYP11 family. Specifically, G-402 cell lines stably expressing human CYP11B1 and human CYP11B2 were established respectively. […] Therefore, the G-402 cell line is very suitable as a host cell for the ectopic expression of an enzyme of the CYP11 family.
The G-402 cell line, originally derived from renal myoblastoma, can be obtained from ATCC (CRL-1440). The main elements of an expression plasmid include ORF of human CYP11B1 or human CYP11B2, a suitable promoter (CMV promoter), and a suitable resistance marker (neomycin). The expression plasmid was transfected into G-402 cells by standard technology, and a specific antibiotic was then given for screening. The activity of the enzyme expressed by the screened monoclonal cells was assessed by 11-deoxycorticosterone (substrate of CYP11B2) and 11-deoxycortisol (substrate of CYP11B1).
The G-402 cells expressing CYP11 plasmid, as established in the above solution, were cultured in McCoy's 5a Modified Medium (ATCC Catalog No. 30-2007) containing 10% FCS and 400 µg/ml G418 in an incubator at 37°C and 5% CO2. A cell enzyme experiment was carried out using DMEM/F12 medium containing 2.5% charcoal-treated FBS and an appropriate concentration of a substrate (1 µM 11-deoxycorticosterone or 1 µM 11-deoxycortisol). In order to detect the activity of the enzyme in the cells, the cells were plated in a 96-well plate and incubated for 16 h. The supernatant was then transferred and analyzed for the concentration of the expected product (the product of CYP11B2: aldosterone; the product of CYP11B1: cortisol). The concentrations of these products were determined by an HTRF experiment of CisBio.
In the cell enzyme experiment, the inhibitory effect of the test compound on the generated product can reflect the inhibitory effect thereof on the enzyme. The dose-dependent inhibition of the enzyme activity by the compound was calculated by plotting the concentration of the test compound (x axis) versus the measured product level (y axis). Then, the original data was fitted to a 4-parameter sigmoidal function (Morgan-Mercer-Flodin, MMF model) by least square method: y = (AB + Cx^D) / (B + x^D) in which A is the maximum y value, B is the EC50 determined by XLFit, C is the minimum y value, and D is the slope value. The maximum value A corresponds to the amount of the product detected without an inhibitor, and C corresponds to the amount of the product detected in the G402 cells expressing an empty plasmid.
The EC50 value of the compound of the present invention was determined by the above G-402 experiment system. The activity of the CYP11B2 enzyme was determined under the conditions of 1 µM 11-deoxycorticosterone and a variable amount of the inhibitor, and the activity of the CYP11B1 enzyme was determined under the conditions of 1 µM 11-deoxycortisol and a variable amount of the inhibitor.
(Time-resolved FRET reads energy transfer from a long-lived donor to a nearby acceptor.)
Consider “6-(5-(2-ethoxyquinolin-6-yl)pyridin-3-yl)-2,6-diazaspiro[3.3]heptan-2-yl)(1-(methyl-d3)-1H-pyrazol-4-yl)methanone [Example 42]”, for which the hsF is on record as 393x. As to `CN1C(=O)OCc2cc(-c3cncc(N4CC5(CN(C(=O)c6cnn(C)c6)C5)C4)c3)ccc21` [Example 5, 1-Methyl-6-(5-(6-(1-methyl-1H-pyrazole-4-carbonyl)-2,6-diazaspiro[3.3]heptan-2-yl)pyridin-3-yl)-1,4-dihydro-2H-benzo[d][1,3]oxazin-2-one], the hsF is on record as more than 1279x. To `CN1C(=O)OCc2cc(-c3cncc(C4=CCN(S(=O)(=O)C5CC5)CC4)c3)ccc21` [Example 41, 6-(1'-(cyclopropylsulfonyl)-1',2',3',6'-tetrahydro-[3,4'-bipyridine]-5-yl)-1-methyl-1,4-dihydro-2H-benzo[d][1,3]oxazin-2-one] belongs 394x.

Take `CC(=O)N[C@@H]1CCCc2c(-c3cnc4c(c3)CCC(=O)N4C)cncc21` [Example 59, (R)-N-(4-(8-methyl-7-carbonyl-5,6,7,8-tetrahydro-1,8-diazanaphthalen-3-yl)-5,6,7,8-tetrahydroisoquinolin-8-yl)acetamide]: the hsF is more than 388x. Regarding `CCC(=O)N[C@H]1c2cncc(-c3ccc4c(c3)sc(=O)n4C)c2C2CC21` (stereo partly drawn) [Example 66-P2, N-((6R)-4-(3-methyl-2-oxo-2,3-dihydrobenzo[d]thiazol-6-yl)-4b,5,5a,6-tetrahydrocyclopropyl[3,4]cyclopenta[1,2-c]pyridin-6-yl)propanamide], the hsF is given as more than 1471x. Under `Cn1cc(C(=O)N2CC3(C2)CN(c2cncc(-c4ccc5c(ccc(=O)n5C)c4)c2)C3)cn1` [Example 69, 1-methyl-6-(5-(6-(1-methyl-1H-pyrazole-4-carbonyl)-2,6-diazaspiro[3.3]heptan-2-yl)pyridin-3-yl)quinolin-2(1H)-one] stands 585x; under `CN(c1cncc(-c2ccc3c(ccc(=O)n3C)c2)c1)C1CN(C(=O)c2cnn(C)c2)C1` [Example 74, 1-methyl-6-(5-(methyl(1-(1-methyl-1H-pyrazole-4-carbonyl)azetidin-3-yl)amino)pyridin-3-yl)quinolin-2(1)-one], 371x. As for `CN1C(=O)C2CC2c2cc(-c3cncc(N4CC5(CN(C(=O)c6cnn(C)c6)C5)C4)c3)ccc21` (centres unmarked) [Example 75, 3-methyl-6-(5-(6-(1-methyl-1H-pyrazole-4-carbonyl)-2,6-diazaspiro[3.3]heptan-2-yl)pyridin-3-yl)-1,1a,3,7b-tetrahydro-2H-cyclopropa[c]quinolin-2-one], the hsF is reported as more than 16666x. Turning to `Cn1cc(C(=O)N2CC(Oc3cncc(-c4ccc5c(ccc(=O)n5C)c4)c3)C2)cn1` [Example 98, 1-methyl-6-(5-((1-(1-methyl-1H-pyrazole-4-carbonyl)azetidin-3-yl)oxy)pyridin-3-yl)quinolin-2(1H)-one], the hsF came out at 2014x. With `Cn1cc(C(=O)N2CC(Oc3cncc(-c4ccc5c(c4)sc(=O)n5C)n3)C2)cn1` [Example 99, 3-methyl-6-(6-((1-(1-methyl-1H-pyrazole-4-carbonyl)azetidin-3-yl)oxy)pyrazin-2-yl)benzo[d]thiazol-2(3H)-one], the hsF is reported as more than 3509x.

On to `Cn1c(=O)sc2cc(-c3cncc(N4CC5(CN(C(=O)C6(C#N)CC6)C5)C4)n3)ccc21` [Example 106, 1-(6-(6-(3-methyl-2-carbonyl-2,3-dihydrobenzo[d]thiazol-6-yl)pyrazin-2-yl)-2,6-diazaspiro[3.3]heptane-2-carbonyl)cyclopropane-1-carbonitrile], for which the hsF was 3103x.
